The values below come from patent US20210236513A1, “NOVEL USES” (ZARODEX THERAPEUTICS LIMITED, priority 2018, published 2021).

In one data set the target is T1, CD20 (Homo sapiens, UniProt P11836).
T1 construct: host or cells: B cells of patients in vivo
T1 sequence (P11836 1-297): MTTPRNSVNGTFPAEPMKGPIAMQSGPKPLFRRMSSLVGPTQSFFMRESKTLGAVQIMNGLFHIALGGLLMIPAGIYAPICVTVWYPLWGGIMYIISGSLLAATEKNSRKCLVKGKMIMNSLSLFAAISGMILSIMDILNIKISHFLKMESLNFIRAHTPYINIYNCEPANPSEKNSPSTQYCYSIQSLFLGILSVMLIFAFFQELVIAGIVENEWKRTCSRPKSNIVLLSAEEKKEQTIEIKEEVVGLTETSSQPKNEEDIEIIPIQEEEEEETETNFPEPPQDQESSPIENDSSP
The following applies: Arnold et al., 2017; Khellaf et al., 2014; cited from earlier work.

Data set [1] has as its system splenic B cell and T cell populations. Nature of the data set: Wild type mouse study, spleen immunophenotyping by flow cytometry. The note with it: FIG. 21. (In general: Flow cytometry measures light scatter and fluorescence of single cells or particles in a stream.)
Data set [2] relates to total peripheral blood B-cells from healthy donors differentiating to plasmablasts and plasma cells.

For rituximab, in the data set with CD20, the “Patients with ITP in whom platelet count improved” value is given as approximately 60%.

With `O=C(CCCN1CCC(O)(c2ccc(Cl)cc2)CC1)c1ccc(F)cc1` [Haloperidol, haloperidol], in data set [1], the “Activated T cells (B220+TCR-β+) in spleen compared to control” value was “also modestly apparent”.

Regarding `Clc1ccc2c(c1)N=C(N1CCNCC1)c1ccccc1N2` [Norclozapine, norclozapine], in data set [2], the “Direct toxicity to differentiating B-cells” value is given as “no direct toxicity effect”.
